Source: ChEMBL document CHEMBL3507680, “University of Dundee, Gates Library screen for HepG2 cell viability”

Assay: Human HepG2 cell viability assay in 384 well format
Type: toxicity, cell-based
Design: dose 125 nL, time 70.5 hour; concentration not given beside the values
Conditions: HepG2 cells, read-out: Inhibition

CCNc1ncc(C(=O)NC2CCc3ccccc3C2)cn1 (configuration not stated)
cytotoxicity at 70.5 h: 54.4%

CC(=O)NCCNC(=O)C(c1ccccc1C)N(C)C (configuration not stated)
cytotoxicity at 70.5 h: 12.4%

CCCSCC(=O)N1C[C@@H]2CC[C@H](C1)N(Cc1ccccn1)C2=O
cytotoxicity at 70.5 h: -5.83%

Fc1ccccc1CC1CCN(Cc2ccccn2)CC1
cytotoxicity at 70.5 h: -5.22%

CCC[C@@H]1CN(C(=O)c2c(F)ccc(OC)c2F)C[C@H]1C(=O)O
cytotoxicity at 70.5 h: -0.545%

CN1CCN([C@@H]2CCN(CC3=Cc4cc(Cl)ccc4OC3)C[C@H]2O)CC1
cytotoxicity at 70.5 h: -0.445%

Cc1nc(CN(C)C(=O)Nc2cccc(C)c2C)no1
cytotoxicity at 70.5 h: -9.32%

CCn1c(Cn2cncn2)nnc1C1CCN(C2CCOCC2)CC1
cytotoxicity at 70.5 h: 34.9%

CC(=O)NC(C)C1=CCCN(Cc2ccc(C(=O)O)cc2)C1 (configuration not stated)
cytotoxicity at 70.5 h: 2.27%

O=C1O[C@@H]2CN(Cc3ccncc3)C[C@@H]2N1CCCN1CCOCC1
cytotoxicity at 70.5 h: -3.93%

Cc1ccc2cc(CN(C)Cc3ccncn3)c(=O)[nH]c2c1
cytotoxicity at 70.5 h: -13.2%

CCN(Cc1noc(C)n1)C(=O)C(c1cccc(C)c1)N(C)C (configuration not stated)
cytotoxicity at 70.5 h: 10.7%

CCN(CCN1CCCCCC1)C(=O)COc1cccnc1
cytotoxicity at 70.5 h: 16%

COc1ccccc1[C@@H]1CN(Cc2ccncc2)C[C@H]1C(=O)O
cytotoxicity at 70.5 h: 9.71%

c1cn(-c2ccc(N3CCC(NC4CC4)CC3)cc2)cn1
cytotoxicity at 70.5 h: -14.2%

CC(C)CC(O)C1CCN(C(=O)c2coc(CN3CCOCC3)c2)CC1 (configuration not stated)
cytotoxicity at 70.5 h: -7.32%

O=C(Cn1ccc(=O)cc1)NCc1ccc2sccc2c1
cytotoxicity at 70.5 h: -7.85%

O=C1OCC(CO)N1Cc1cccc(Cl)c1F (configuration not stated)
cytotoxicity at 70.5 h: 26.5%

O=C(c1ccccc1)C1CCN(C(=O)CC2COCCN2)CC1 (configuration not stated)
cytotoxicity at 70.5 h: 1.52%

CN(C)S(=O)(=O)NCc1cccnc1Oc1ccc(F)c(F)c1
cytotoxicity at 70.5 h: -4.24%

CC(C)Nc1cc(N2CCC(n3cc(CCO)nn3)CC2)ncn1
cytotoxicity at 70.5 h: 16.9%

CN1[C@H]2CC[C@@H]1CN(c1nc(-c3ccncc3)nc3c1cnn3C)CC2
cytotoxicity at 70.5 h: -2.38%

c1ccc(-c2nnc(N3CCCC4(CCOC4)C3)s2)cc1 (configuration not stated)
cytotoxicity at 70.5 h: 1.41%

O=C(c1cncc(NCC2COc3ccccc3C2)n1)N1CCOCC1 (configuration not stated)
cytotoxicity at 70.5 h: -7.07%

COc1ccc(OCc2cc(C(=O)N3CCCCO3)n[nH]2)c(Cl)c1
cytotoxicity at 70.5 h: -19.5%

CCc1ncc(C(=O)N2CC[C@@H]3CC[C@H](C2)N3C)cn1
cytotoxicity at 70.5 h: -14%

O=C(CN1CCNC1=O)N1CCc2nnc(-c3ccccc3)n2CC1
cytotoxicity at 70.5 h: -1.95%

CCn1nc(C)c(NC(=O)CN(C)C(C)c2nccs2)c1C (configuration not stated)
cytotoxicity at 70.5 h: -6.95%

Cc1cccnc1CNC(=O)CC1C(=O)NCCN1CC(C)(C)C (configuration not stated)
cytotoxicity at 70.5 h: -10.2%

CCc1cc(CN(C)C(=O)c2cnn[nH]2)on1
cytotoxicity at 70.5 h: -9.04%

Cc1ccccc1C(C(=O)NCCS(C)(=O)=O)N(C)C (configuration not stated)
cytotoxicity at 70.5 h: -14.5%

O=C1CCCCCN1Cc1nc(C2(c3ccc(F)cc3)CCOC2)no1 (configuration not stated)
cytotoxicity at 70.5 h: 18.4%

COCCNc1cc(-c2ccccc2S(N)(=O)=O)c2cc[nH]c2n1
cytotoxicity at 70.5 h: -7.36%

CC(C)n1cnnc1CN(C)C(=O)c1ccccc1-n1cncn1
cytotoxicity at 70.5 h: 0.803%

O=C1N(CC2CC2)CCCC1(O)CN1CCc2[nH]ncc2C1 (configuration not stated)
cytotoxicity at 70.5 h: -4.29%

c1cnn(CCC2CCN(Cc3ccc4[nH]ccc4c3)CC2)c1
cytotoxicity at 70.5 h: 0.43%

Cc1nc(O)cc(CN2CCC=C(CN(C)C(=O)c3ccco3)C2)n1
cytotoxicity at 70.5 h: -14.2%

CCCS(=O)(=O)c1ncc(CN2CCC(C)CC2)n1CC1CCCO1 (configuration not stated)
cytotoxicity at 70.5 h: -2.16%

CCCn1ncc(C(=O)NCc2n[nH]c3c2CCCCC3)c1C
cytotoxicity at 70.5 h: -13.2%

CCC1c2cccn2CCN1C(=O)c1cc(OC)nc(OC)n1 (configuration not stated)
cytotoxicity at 70.5 h: 44.1%

CNC(=O)C(C)NC(=O)c1cc(COc2ccc(OC)cc2Cl)[nH]n1 (configuration not stated)
cytotoxicity at 70.5 h: -2.95%

CCN1CCN(C(=O)CCC2CCN(C(C)CSC)CC2)CC1 (configuration not stated)
cytotoxicity at 70.5 h: 3.5%

CNc1cc(-c2ccccc2CN)c2cc[nH]c2n1
cytotoxicity at 70.5 h: 3.36%

CN(C)C(=O)c1cccnc1N1CCOC(c2ccc(Cl)cc2)C1 (configuration not stated)
cytotoxicity at 70.5 h: -12.8%

CN(C)C(=O)NCc1cc2n(n1)CCCN(CC1CCCNC1)C2 (configuration not stated)
cytotoxicity at 70.5 h: 29.9%

Cc1cc(NCCc2c(C)n[nH]c2C)nc(-c2cccnc2)n1
cytotoxicity at 70.5 h: 20.8%

Cc1nn(CC(=O)NCc2cc3n(n2)CCCN(CC(C)C)C3)cc1Cl
cytotoxicity at 70.5 h: 9.44%

O=C(CCn1cnnn1)N1CCCC(CO)(CCCc2ccccc2)C1 (configuration not stated)
cytotoxicity at 70.5 h: -1.63%

O=C(NCc1nncn1C1CCCCC1)C1COc2ccccc2O1 (configuration not stated)
cytotoxicity at 70.5 h: -7.82%

Nc1nnc(CCNC(=O)c2cccc(C3CCCNC3)c2)s1 (configuration not stated)
cytotoxicity at 70.5 h: -10.1%

Cc1cnccc1NCCNC(=O)[C@H]1CNC[C@H](C(=O)N2CCCC2)C1
cytotoxicity at 70.5 h: -4.18%

COC(=O)c1cc(OCC2CCC2)cc(C(=O)N[C@H](C)C(N)=O)c1
cytotoxicity at 70.5 h: -10.2%

CC(=O)N1CCc2[nH]cnc2C1C1=CCCN(CCn2cccc2)C1 (configuration not stated)
cytotoxicity at 70.5 h: -4.34%

Cc1cc(C(=O)N[C@H]2Cc3ccccc3[C@@H]2N)c(=O)[nH]c1C
cytotoxicity at 70.5 h: 1.3%

CCOc1cc(CNCc2ncc[nH]2)c(Cl)cc1OC(C)C
cytotoxicity at 70.5 h: 20.6%

CCCc1noc(C2CC(=O)N(C(C)(C)C)C2)n1 (configuration not stated)
cytotoxicity at 70.5 h: -16%

O=C(N1CCC2(CC1)[C@H](O)C[C@@H]2O)C1(c2ccccc2F)CC1
cytotoxicity at 70.5 h: 1.59%

CN(C)C(C(=O)NCC1(N(C)C)CCOCC1)c1ccccc1F (configuration not stated)
cytotoxicity at 70.5 h: -7.91%

Cc1ccc(C2(CN(C)Cc3snnc3C)CCNCC2)nc1
cytotoxicity at 70.5 h: -1.57%

O=C1CC(NCc2ccc(OC(F)F)cc2)CN1Cc1cccc(F)c1 (configuration not stated)
cytotoxicity at 70.5 h: -4.49%

Cc1ccc(CN(C)C(=O)C(C)n2ccnc2C(C)C)o1 (configuration not stated)
cytotoxicity at 70.5 h: -18.9%

CN(Cc1cc2n(n1)CCNC2)Cc1noc(C2CCC2)n1
cytotoxicity at 70.5 h: -3.21%

COc1ccc(Cl)cc1C(=O)N1C[C@H](C(C)C)[C@@H](N)C1
cytotoxicity at 70.5 h: 3.26%

CCc1nc(C)c(C(=O)N2CCNCC2C(=O)Nc2ccc(C)nc2)o1 (configuration not stated)
cytotoxicity at 70.5 h: -3.52%

NC(=O)c1ccc(CN2C(=O)C3(CCNCC3)Nc3ccccc32)cc1
cytotoxicity at 70.5 h: 26.6%

CCc1nc2ccccc2n1C(CC)C(=O)N(C)Cc1noc(C)n1 (configuration not stated)
cytotoxicity at 70.5 h: -19.8%

CCCOC1CCCN(Cc2nc(-c3cccs3)oc2C)C1 (configuration not stated)
cytotoxicity at 70.5 h: -1.07%

CCCc1cnc(C)nc1N1CCC(Cn2cc(C(C)O)nn2)CC1 (configuration not stated)
cytotoxicity at 70.5 h: -13.9%

CC(C)c1nccc(CN2CCCC(O)(CN(C)C)C2)n1 (configuration not stated)
cytotoxicity at 70.5 h: 15%

Cc1nnsc1CN1CCCC1c1nc(-c2ccccc2)no1 (configuration not stated)
cytotoxicity at 70.5 h: -3.77%

COCCC(=O)NCC1COc2cc(OC)ccc2C1 (configuration not stated)
cytotoxicity at 70.5 h: -12.7%

Cc1ncsc1CCC(=O)NC1CCN(Cc2cccs2)CC1
cytotoxicity at 70.5 h: -11.5%

CC(C)c1nc(CN(C)C(=O)c2ccccc2C2CCNC2)cs1 (configuration not stated)
cytotoxicity at 70.5 h: -8.26%

CC(CO)(CO)NC(=O)C1CCC(=O)N(Cc2ccc(Cl)cc2)C1 (configuration not stated)
cytotoxicity at 70.5 h: -2.86%

CCc1nc2c(N3CCC4(CC3)CC(=O)N(CC(C)C)C4)ncnc2o1
cytotoxicity at 70.5 h: 1.84%

Cc1nc2c(c(NCc3cc4ccccc4s3)n1)CCNCC2
cytotoxicity at 70.5 h: -5.12%

COCCc1noc(CN(C)c2nc(C)nc(C)c2C)n1
cytotoxicity at 70.5 h: 25.3%

O=C(CCc1nc(Cl)n[nH]1)N1CCC2(CCCN(CC3CCC3)C2=O)C1 (configuration not stated)
cytotoxicity at 70.5 h: -7.56%

Cc1cc(NCCNc2cccnc2)nc(-c2ccccc2O)n1
cytotoxicity at 70.5 h: 3.73%

CN1CC2(CCCN(c3cc(N4CCCCC4)ncn3)C2)OC1=O (configuration not stated)
cytotoxicity at 70.5 h: 12.1%

Cc1cc(=O)c2ccccc2n1CC1CCN(C(C)C)C1 (configuration not stated)
cytotoxicity at 70.5 h: -1.13%

CN(Cc1ccon1)C1CCN(c2cccc(-c3cscn3)c2)CC1
cytotoxicity at 70.5 h: -4.4%

O=c1[nH]c(-c2ccccc2)nc2c1CCN(S(=O)(=O)N1CCCC1)C2
cytotoxicity at 70.5 h: -7.26%

Cc1ncc(C)c(N2CCC(CCc3ccccc3)(C(=O)O)CC2)n1
cytotoxicity at 70.5 h: -10.1%

CCN1CCC(N2C[C@@H](C(=O)O)[C@H](c3cccc(OC)c3)C2)CC1
cytotoxicity at 70.5 h: -0.816%

Cn1c(Cn2ccnc2)nnc1C1CCCN(CC(C)(C)C)C1 (configuration not stated)
cytotoxicity at 70.5 h: -8.29%

CNC(=O)[C@@H]1C[C@@H](N)CN1C(=O)CCSCc1ccc(F)cc1
cytotoxicity at 70.5 h: 7.46%

COCC(=O)N1CCC2(CC1)CC(=O)N(Cc1ccc(Cl)cc1)C2
cytotoxicity at 70.5 h: -6.31%

COCCc1noc(CN(C)C(=O)C2COc3ccccc3C2)n1 (configuration not stated)
cytotoxicity at 70.5 h: -5.1%

Cc1cc(CN2CCC(CNC(=O)c3ccc(C#N)cc3)C2)[nH]n1 (configuration not stated)
cytotoxicity at 70.5 h: -0.514%

CC(C)S(=O)(=O)N1CCC(Cc2cccc(C(=O)O)c2)C1 (configuration not stated)
cytotoxicity at 70.5 h: -4.82%

C[C@H](N)C(=O)N1CCC(c2[nH]ncc2-c2ccccc2)CC1
cytotoxicity at 70.5 h: -4.88%

O=C(c1cccc(S(=O)(=O)NCCc2ccccn2)c1)N1CCOCC1
cytotoxicity at 70.5 h: -2.52%

COc1ccc(CN2CCC3(CCCN(C)C3=O)C2)c(Cl)c1OC (configuration not stated)
cytotoxicity at 70.5 h: 0.156%

COCCN(Cc1sccc1C)C(=O)C1CCCN(C(N)=O)C1 (configuration not stated)
cytotoxicity at 70.5 h: 9.09%

O=C1CCCN1CCc1noc(-c2ccc3[nH]cnc3c2)n1
cytotoxicity at 70.5 h: -8.29%

C/C(=C\c1ccco1)CN(C)C(C)c1ccccn1 (configuration not stated)
cytotoxicity at 70.5 h: 16.1%

Cc1cccc(OC2CN(C(=O)C3CC(=O)N(C(C)(C)C)C3)C2)c1 (configuration not stated)
cytotoxicity at 70.5 h: -2.82%

Cc1cc(C)n(CC(C)NCc2cnc3c(C)cccn23)n1 (configuration not stated)
cytotoxicity at 70.5 h: -2.32%

c1cc(-c2cn[nH]c2)ncc1CN1CCCCC1
cytotoxicity at 70.5 h: -6.79%

O=C(NCCc1nc(-c2cccnc2)no1)c1ccc(C2CCCO2)s1 (configuration not stated)
cytotoxicity at 70.5 h: 6.34%

COCCN1C[C@H]2CC[C@@H]1CN(C(=O)CCc1n[nH]c(C)c1C)C2
cytotoxicity at 70.5 h: 6.62%

OC(CNc1ccncn1)CN1CCCCCC1 (configuration not stated)
cytotoxicity at 70.5 h: -7.06%

O=C1NCCN(Cc2ccccc2)C1CC(=O)N1CCc2n[nH]cc2C1 (configuration not stated)
cytotoxicity at 70.5 h: 19.3%

COCC(NC1CCN(CC(C)C)CC1)c1ccnn1C (configuration not stated)
cytotoxicity at 70.5 h: -6.73%

CN(Cc1ccc(-n2cccn2)cc1)c1nc(N)nc2c1CCNCC2
cytotoxicity at 70.5 h: 12.6%

O[C@@]1(CNCCCOc2cccnc2)CCCN2CCCC[C@@H]21
cytotoxicity at 70.5 h: 5.47%

Cc1cc(N2CCOC(C(F)(F)F)C2)nc(-c2ccccc2O)n1 (configuration not stated)
cytotoxicity at 70.5 h: -6.3%

Cc1cc2nc(C(C)C)cc(N3CCC(Oc4ncccn4)CC3)n2n1
cytotoxicity at 70.5 h: 48.7%

CSc1ccc(C(=O)N2C[C@H]3CC[C@@H]2CN(Cc2ccccc2)C3)cc1
cytotoxicity at 70.5 h: -0.304%

COCCCN1C(=O)CC[C@H]2CN(c3ccnc4ccccc34)CC[C@H]21
cytotoxicity at 70.5 h: -5.09%

CC(C)Oc1ccc(CN2CCCC(N3CCOCC3)C2)cc1CO (configuration not stated)
cytotoxicity at 70.5 h: -5.76%
